Tests used:
chronic oral GVHD = assay: Case report: severe chronic oral GVHD refractory to systemic and topical therapies; conditions: when systemic prednisone was increased; tongue ulceration not resolved
Protocol: They had continuing difficulties with GVHD, including oral involvement.
Oral findings were consistent with pseudomembranous candidiasis, and an ulceration on the left cheek was consistent with minor trauma. […] Acute (grade II) GVHD (skin and liver) was treated with systemic corticosteroids.
Leukoplakia involving the lateral borders of the tongue, consistent with hairy-like leukoplakia, developed. […] Oral changes included findings consistent with GVHD and reactivation of HSV. HSV and candida were confirmed on culture. […] Multiple dilated salivary ducts were visualized on the soft palate. Ulcerations of 3-4 mm in diameter were present on the lateral borders, the dorsum, and the tip of the tongue. […] Biopsy of the ulcer on the cheek was consistent with HSV.
Extensive lichenoid striae with moderate erythema and ulceration involving the lateral tongue on the right and left and the right cheek was seen. A second oral biopsy of lip mucosa and minor salivary glands was completed, which was interpreted as grade II GVHD.
The AZA suspension was made by combining AZA powder with a cherry flavored methylcellulose (1%) suspending vehicle to a final concentration of 5 mg/ml. […]

parodontosis = conditions: topical administration; cited from earlier work
[1] = delayed-release oral capsule, improved ileocolonic delivery; cited from earlier work
[2] = 50 mg/ml solution, 60 days at 25° C.; cited from earlier work
[3] = system: oral findings due to GVHD
Protocol: Five other patients suffering from oral findings due to GVHD were treated with oral azathioprine solutions, using the method of the present invention. The patients were treated with 5 ml of a solution of AZA (5 mg/ml), three-four times daily. […] One patient (#5) was treated once with an oral rinse, and subsequently with a combination of an AZA rinse and AZA in a gel (5 mg/ml in a 3% methylcellulose base). The patients were not treated with any systemic immunosuppressant or steroid drug. The progress of each patient was reviewed at the times indicated.

corneal graft rejections = conditions: topical administration; cited from earlier work
aphthous stomatitis = conditions: topical administration; cited from earlier work

Structure (SMILES) | oral symptoms and signs (chronic oral GVHD) | effect in the treatment of parodontosis (parodontosis) | systemic bioavailability [1] | retained share of the initial concentration [2] | reduction in ulceration ([3]; all but one of the GVHD patients of Table 1) | reduction in pain, all the patients ([3]; all five GVHD patients of Table 1) | estimated global improvement, all the patients ([3]; all five GVHD patients of Table 1, compared to condition prior to treatment) [%] | effect in the treatment of corneal graft rejections (corneal graft rejections) | effect in the treatment of aphthous stomatitis (aphthous stomatitis)
C[C@]12C=CC(=O)C=C1CC[C@@H]1[C@@H]2C(=O)C[C@@]2(C)[C@H]1CC[C@]2(O)C(=O)CO [prednisone] | improved | – | – | – | – | – | – | – | –
Cn1cnc([N+](=O)[O-])c1Sc1ncnc2nc[nH]c12 [AZA, azathioprine] | – | some beneficial effect | dramatically reduced systemic bioavailability | at least 96% | at least 50% | at least 50% | ≥ 40 | ineffective | ineffective

From patent US7323471B1, “Topical azathioprine for the treatment of oral autoimmune diseases” (DOR Biopharma, Inc., priority 1999, dated 2008)
